We go through five compounds from patent US9718835B2 (China Medical University Hospital, priority 2013, dated 2017).

One series relates to Topo II. As to the kind of experiment: Topo II activity assay, nuclear extracts of treated A-549 cells, catenated kDNA. The format is cell-based, human. An excerpt:
First, we determined the effect of 9a on cell cycle distribution using flow cytometry analysis. […] Because it has been shown that 1-Topo I-DNA covalent complexes enhance the transcription-dependent degradation of Topo I via a 26S proteasome pathway,^32 the effects of 9a on the expression levels of Topo I and Topo II were investigated. […] Compound 9a acts directly on Topo I and results in the accumulation of covalent Topo I-DNA complexes followed by proteasomal Topo I degradation, which is the same effect as 1 and contributes to 9a's cytotoxicity.
(§1) Topo I activity test was performed using an assay kit (TopoGEN) according to the manufacturer's instructions. Nuclear extracts from 9a-treated A-549 cells were incubated with supercoiled DNA (for Topo I) or catenated kDNA (for Topo II) for 30 min at 37° C. Reaction mixture was separated by is 1% agarose gel in 1×TAE buffer. The gel was stained with ethidium bromide and photographed using Gel Doc XR (Bio-Rad).

In series [1] the target is T1, recombinant human Topoisomerase I (Homo sapiens, UniProt P11387).
T1 construct: purchased TopoGEN
T1 sequence (P11387 1-765): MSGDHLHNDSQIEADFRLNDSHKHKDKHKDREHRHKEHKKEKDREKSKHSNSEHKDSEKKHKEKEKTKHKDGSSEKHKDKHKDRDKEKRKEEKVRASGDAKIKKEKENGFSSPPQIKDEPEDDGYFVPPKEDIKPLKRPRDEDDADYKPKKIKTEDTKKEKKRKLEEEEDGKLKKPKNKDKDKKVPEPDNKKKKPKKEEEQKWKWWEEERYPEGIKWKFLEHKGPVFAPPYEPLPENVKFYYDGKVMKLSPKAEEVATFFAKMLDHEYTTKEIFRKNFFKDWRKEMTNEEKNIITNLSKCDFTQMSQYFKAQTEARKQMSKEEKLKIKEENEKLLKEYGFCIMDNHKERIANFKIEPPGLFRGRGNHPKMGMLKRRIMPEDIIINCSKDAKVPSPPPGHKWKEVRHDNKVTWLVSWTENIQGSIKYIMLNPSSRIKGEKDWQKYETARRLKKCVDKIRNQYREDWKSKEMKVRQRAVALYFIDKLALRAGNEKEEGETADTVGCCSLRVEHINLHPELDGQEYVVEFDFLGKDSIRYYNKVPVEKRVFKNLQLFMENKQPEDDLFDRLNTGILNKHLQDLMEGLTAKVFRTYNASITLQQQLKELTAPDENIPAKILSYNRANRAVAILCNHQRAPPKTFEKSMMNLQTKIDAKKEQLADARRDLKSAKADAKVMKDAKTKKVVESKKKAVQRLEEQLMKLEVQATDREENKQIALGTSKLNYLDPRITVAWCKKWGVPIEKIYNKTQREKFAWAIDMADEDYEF
Description: Topoisomerase I activity assay in a cell-free system. The format is biochemical. The following applies: purified recombinant human Topo I. As to the method:
Inhibition of Topo I activity by 9a in a cell-free system. A 1-delivative with an esterified 20-hydroxy group is expected to be activated by digestion with carboxylesterases. […] We authenticated the inhibitory effect of 9a against Topo I in a dose-dependent manner Thus, we confirmed that 9a is a new class of Topo I inhibitor.
One unit of recombinant human Topoisomerase I enzyme (TopoGEN) was pre-incubated for 20 min at 37° C. with vehicle, 9a, 1, 3, or SN-38 in a final volume of 20 μL reaction buffer (10 mM Tris-HCl, pH 7.9, 1 mM EDTA, 150 mM NaCl, 0.1% BSA, 0.1 mM spermidine, 5% glycerol) was then incubated with 250 ng of supercoiled plasmid DNA for 20 min. The supercoiled, relaxed, or nicked DNA was separated by 1% agarose gel in 1×TAE (Tris-Acetate-EDTA) buffer. Ethidium bromide stained agarose gel was photographed using Gel Doc XR (Bio-Rad).

Series [2] deals with DU-145 (hormone-insensitive prostate cancer). Description: Sulforhodamine B cytotoxicity assay, DU-145. The format is cell-based, human. The following applies: Homo sapiens, DU-145; Table 1; 72 h; average ± SD. As to the method:
(§2) The 12 novel 1-derivatives 9a-l were evaluated for in vitro antiproliferative activity against four human tumor cell lines, KB (nasopharyngeal), A-549 (lung), DU-145 (prostate), and KBvin (MDR KB subline), by using a sulforhodamine B colorimetric assay with triplicate experiments.^30 Compounds 1 and 3 were used as controls.
(§3) The human tumor cell lines used in this manuscript were A-549 (lung carcinoma), MDA-MB-231 (triple-negative breast cancer), DU-145 (hormone-insensitive prostate cancer), KB (originally isolated from epidermoid carcinoma of the nasopharynx), KBvin (vincristine-resistant KB subline), and HCT116 (colorectal adenocarcinoma). These cell lines were obtained from the Lineberger Comprehensive Cancer Center (UNC-CH) or from ATCC (Manassas, Va.), except KBvin, which was a generous gift of Professor Y.-C. Cheng (Yale University). All cell lines were maintained and assayed in RPMI-1640 medium containing 2 mM L-glutamine and 25 mM HEPES (HyClone), supplemented with 10% heat-inactivated fetal bovine serum (HyClone), 100 μg/mL streptomycin, 100 IU/mL penicillin, and 0.25 μg/mL amphotericin B (Cellgro) in a humidified atmosphere containing 5% CO2 in air. Compound stock solutions were prepared at 10 mM in DMSO and diluted with culture medium with the final DMSO concentration ≦0.01% (v/v), a concentration without effect on cell growth. The 4-6×10^3 cells/well were cultured for 72 h with various concentrations of test compounds in 96-well plate at 37° C. […] Each assay was performed in triplicate with duplicated samples.
Background: The SRB assay estimates cell density from bound dye.

The target in the next series is T2, Topo I (Homo sapiens, UniProt P11387).
T2 sequence (P11387 1-765): T1 sequence (P11387 1-765)
Description: Topo I activity assay, nuclear extracts of treated A-549 cells, supercoiled DNA. The format is cell-based. On the set-up: Nuclear extracts from 9a-treated A-549 cells were incubated with supercoiled DNA (for Topo I); endogenous in cells; host or cells: A-549. Here is the method:
First, we determined the effect of 9a on cell cycle distribution using flow cytometry analysis. […] Because it has been shown that 1-Topo I-DNA covalent complexes enhance the transcription-dependent degradation of Topo I via a 26S proteasome pathway,^32 the effects of 9a on the expression levels of Topo I and Topo II were investigated.
as §1

For series [3] the following is noted: i.p.; cited from earlier work.
For series [4], the system named is MDA-MB-231 (triple-negative breast cancer). Description: Sulforhodamine B cytotoxicity assay, MDA-MB-231. The format is cell-based. Particulars: Homo sapiens, Table 4, read-out: IC50 (Average ± SD) MDA-MB-231.
Source text: as §3, with “Compound stock solutions were prepared at 10 mM in DMSO and diluted with culture medium with the final DMSO concentration ≦0.01% (v/v), a concentration without effect on cell growth.” left out

Series [5] concerns KB (epidermoid carcinoma of the nasopharynx). Description: Sulforhodamine B cytotoxicity assay, KB. The format is cell-based, human. Particulars: Homo sapiens. Here is the method:
as §2, §3

For series [6], the system named is KBvin (vincristine-resistant KB subline). Description: Sulforhodamine B cytotoxicity assay, KBvin. The following applies: Homo sapiens, KBVIN. The format is cell-based, human.
Source text: as §3, with “Compound stock solutions were prepared at 10 mM in DMSO and diluted with culture medium with the final DMSO concentration ≦0.01% (v/v), a concentration without effect on cell growth.” left out

The next series has as its system A-549 (lung carcinoma). As to the kind of experiment: Sulforhodamine B cytotoxicity assay, A-549. The format is cell-based, human. The following applies: Homo sapiens, A549; Table 1; 72 h; average ± SD.
Source text: as §3, with “Compound stock solutions were prepared at 10 mM in DMSO and diluted with culture medium with the final DMSO concentration ≦0.01% (v/v), a concentration without effect on cell growth.” left out

For series [7], the system named is human colorectal adenocarcinoma HCT116 xenograft. Description: Xenograft model antitumor assay. The format is in vivo, nu/nu mice. Here is the method: Xenograft model antitumor assay using human colorectal adenocarcinoma cell line HCT116 was performed according to the regimen in Table 2. The 31-day study utilized four groups of mice (n=8) bearing established HCT116 xenograft with mean volumes of approximately 200 mm^3 on day one. The tumor growth and animal body weight change for each treatment group were measured three times per week (FIGS. 2 and 3). Compound 9a was administered intravenously (i.v.) for 7 days and then intraperitoneally (i.p.) at 5 and 10 mg/kg once every day (QD) to the end.
Five- to six-week-old female nu/nu mice (National Laboratory Animal Center, Taiwan) were inoculated subcutaneously with 2×10^6 human colorectal adenocarcinoma HCT116 cells in flank. When the grafted tumor volume reached the average volume of 200 mm^3, mice were randomly divided into four groups (n=8). Vehicle control and compound 9a at 5 or 10 mg/kg were administered i.v. once a day (QD) for 7 days and then i.p. once a day to the end. As an experimental control group, 100 mg/kg of compound 3 was administered i.v. once a week (QWK) to the end. The length (L) and width (W) of graft was measured every 3 to 4 days to the end, and the tumor volume was calculated as LW^2/2. Results were evaluated statistically by Student's t-test. This study was approved by the Institutional Animal Care and Use Committee (IACUC) of the National Taiwan University (Taipei, Taiwan), and was performed according to the institutional guidelines.

Like-named read-outs stand apart in the source and are kept apart here. Some results are limits rather than exact numbers.

In the case of `COc1cc([C@@H]2c3cc4c(cc3[C@@H](O[C@@H]3O[C@@H]5CO[C@@H](C)O[C@H]5[C@H](O)[C@H]3O)[C@H]3COC(=O)[C@H]23)OCO4)cc(OC)c1O` [etoposide], the “Topo II decatenation of kDNA” value with Topo II is reported as “effectively blocked the decatenation of kDNA”.
For the compound `CC[C@@]1(O)C(=O)OCc2c1cc1n(c2=O)Cc2cc3ccccc3nc2-1` [Compound 1, Camptothecin, reference compound], the “Inhibition of Topo I activity (relaxation/nicking of supercoiled plasmid DNA)” value in series [1] is “inhibited Topo I activity”. In addition, in series [2], the IC50 amounted to 0.029 ± 0.0025 µM. Further, the “Topo I-mediated relaxation of supercoiled DNA” value at Topo I is listed as “inhibited the relaxation of supercoiled DNA”. Moreover, in [3], the LD50 was 56.2 mg/kg. In addition, in the series on Topo II, the “Topo II decatenation of kDNA” value was “failed to decatenate kineoplast DNA”.
With `CC[C@@]1(O)C(=O)OCc2c1cc1n(c2=O)Cc2cc3c(CN(C)C)c(O)ccc3nc2-1` [Compound 2, topotecan, reference compound], the IC50 came out at 0.1 ± 0.0055 µM in [4]; 0.063 ± 0.0042 µM in series [5] (Table 4, read-out: IC50 (Average ± SD) KB); 0.4 ± 0.021 µM in series [6] (Table 4, read-out: IC50 (Average ± SD) KBvin).
In the case of `CCc1c2c(nc3ccc(O)cc13)-c1cc3c(c(=O)n1C2)COC(=O)[C@]3(O)CC` [SN-38], in [1], the “Inhibition of Topo I activity (relaxation/nicking of supercoiled plasmid DNA)” value was “inhibited Topo I activity”.
Consider `CCc1c2c(nc3ccc(OC(=O)N4CCC(N5CCCCC5)CC4)cc13)-c1cc3c(c(=O)n1C2)COC(=O)[C@]3(O)CC` [Compound 3, irinotecan, reference compound], for which the “Inhibition of Topo I activity (relaxation/nicking of supercoiled plasmid DNA)” value in series [1] is “no inhibitory effect on Topo I activity”. Besides, the IC50 is 9.5 ± 0.11 µM with A-549 (lung carcinoma); 9.3 ± 0.61 µM in series [2]; 9.8 ± 0.48 µM in series [5] (Table 1, 72 h, average ± SD, read-out: IC50 KB); over 20 µM in [6] (Table 1, 72 h, average ± SD, read-out: IC50 KBvin). Further, the “mice showing complete regression” value in [7] (100 mg/kg QWK i.v., n=8) was “three mice”. The “antitumor activity in vivo (tumor growth)” value in [7] (100 mg/kg QWK, P<0.001) is “exhibited antitumor activity”. The LD50 in series [3] is 177.5 mg/kg.

Broadly, the IC50 is the concentration that inhibits the measured activity by half. As a reminder, the LD50 is the dose expected to kill half of the subjects tested.
